Test results reported in patent US11033641B2, “Radiolabelled mGluR2/3 pet ligands” (Janssen Pharmaceutica NV, priority 2015, dated 2021).
Values belong to the compound of their own block, whether it stands above or below them.

What was measured:
mGluR2/3 = assay: microPET scan, baseline and after compound A pretreatment; format: in vivo; conditions: SD rats
Protocol: Data were acquired in a 128×128×95 matrix with a pixel width of 0.475 mm and a slice thickness of 0.796 mm. During PET imaging, rats were kept under gas anesthesia (2.5% isoflurane in oxygen at a flow rate of 1 l/min), and their body temperature was maintained between 36.5 and 37° C. using a heating pad. PET data were analyzed using Pmod software version 3.2 (Pmod, Zurich Switzerland).
(§1) Sprague-Dawley rats obtained from Harlan (the Netherlands), were housed in groups of four to six per cage until treatment. They were kept at a constant temperature of 21° C. and at a 12-h light/dark cycle, in which lights were switched on at 8:00 a.m. Animals had unrestricted access to food (Teklad Global 16% Protein Rodent Diet, Harlan, Madison, Wis., USA) and water. All animal experiments were performed in compliance with Belgium laws on animal experimentation and after approval by the local animal ethics committee.
All pretreatment solutions were 1 mg/mL solutions in 20% β-cyclodextrine in saline with a pH ranging between 6 and 8, and sterile filtered over a Millex GV filter prior to use.
For the baseline scan, 36-43 MBq of [^18F]-1 was injected in 3 SD rats weighing 229-251 g in the tail vein, and scanned simultaneously during a 90 min dynamic PET scan. For the pretreatment scan using compound A (a NAM compound, selective for mGlu2/3 (˜20 fold selective for 2 over 3) vs other mGluRs), the same animals were injected with 10 mg/kg compound A s.c. 60 minutes prior to injection of 38-37 MBq [^18F]-1 in the tail vein, and scanned simultaneously during a 90 minutes dynamic PET scan.
For the baseline scan, 39-49 MBq of [^18F]-2 was injected in 3 SD rats weighing 301-310 g in a tail vein, and scanned simultaneously during a 90-min dynamic PET scan. For the pretreatment scan using compound A, the same animals were injected with 10 mg/kg compound A s.c. 60 min prior to injection of 46-50 MBq [^18F]-2 in the tail vein, and scanned simultaneously during a 90 min dynamic PET scan.

human mGlu2 = molecular target: T1, human mGlu2 (Homo sapiens, UniProt Q14416); assay: [3H]-compound A displacement binding, human mGlu2 HEK293 membranes; conditions: Glu2 HEK293, 6 nM [3H]-compound A
T1 construct: expressed in transfected cells; host or cells: HEK293
Protocol: (§2) For [^3H]-compound A (a NAM compound, selective for mGlu2/3 (˜20 fold selective for 2 over 3) vs other mGluRs) binding, membranes from human mGlu2 and mGlu3 HEK293 cells, and also rat cortical membranes, were used. After thawing, membranes were homogenized using an Ultra Turrax homogenizer and suspended in ice-cold binding buffer containing 50 mM Tris-HCl (pH 7.4), 10 mM MgCl2, 2 mM CaCl2. Displacement studies were done using 6 nM of radioligand, except for human mGlu3 membranes where 25 nM was used. Assay mixtures were incubated for 60 min at RT in a volume of 0.5 ml containing […] or 75 μg membrane protein of human mGlu2, human mGlu3 or rat cortex, respectively. Non-specific binding was estimated in the presence of […] compound B (a NAM with IC50˜10 nM against hmGlu2 and IC50˜200 nM against hmGlu3). Filtration was performed using Whatman GF/C filter sheets pre-soaked in 0.1% PEI and a Brandell harvester 96.
(§3) Filters from filters sheets were punched into vials. After the addition of scintillation liquid, radioactivity on the filters was counted in a Liquid Scintillation Analyzer from Perkin Elmer.
(§4) Radioligand competition binding data were calculated as percentage of total binding measured in the absence of test compound. Inhibition curves, plotting percentage of total binding versus the log concentration of the test compound, were generated using the Lexis software. Sigmoid inhibition curves were analyzed using non-linear regression analysis.

human mGlu3 = molecular target: T2, human mGlu3 (Homo sapiens, UniProt Q14832); assay: [3H]-compound A displacement binding, human mGlu3 HEK293 membranes; conditions: Glu3 HEK293, 25 nM [3H]-compound A
T2 construct: expressed in transfected cells; host or cells: HEK293
Protocol: as §2, §3, §4

[1] = Ex-vivo biodistribution in SD rats; parameters: species or system Sprague Dawley rats
Protocol: as §1
(§5) The biodistribution of [^18F]-1 was determined at 2, 10, 30 and 60 min, after injection in Sprague Dawley (SD) rats (n=3 per time point) while for [^18F]-2 the 30 min time point was not performed. Rats were injected intravenously with 0.7-1.1 MBq via a tail vein and euthanized at the time points indicated above, under isoflurane anesthesia. All tissues were dissected, weighed and counted for radioactivity in a gamma counter.
as §5, with “Dawley” for “Dawley (SD)”, “point).” for “point) while for [^18F]-2 the 30 min time point was not performed.”

T2 sequence (Q14832 23-879): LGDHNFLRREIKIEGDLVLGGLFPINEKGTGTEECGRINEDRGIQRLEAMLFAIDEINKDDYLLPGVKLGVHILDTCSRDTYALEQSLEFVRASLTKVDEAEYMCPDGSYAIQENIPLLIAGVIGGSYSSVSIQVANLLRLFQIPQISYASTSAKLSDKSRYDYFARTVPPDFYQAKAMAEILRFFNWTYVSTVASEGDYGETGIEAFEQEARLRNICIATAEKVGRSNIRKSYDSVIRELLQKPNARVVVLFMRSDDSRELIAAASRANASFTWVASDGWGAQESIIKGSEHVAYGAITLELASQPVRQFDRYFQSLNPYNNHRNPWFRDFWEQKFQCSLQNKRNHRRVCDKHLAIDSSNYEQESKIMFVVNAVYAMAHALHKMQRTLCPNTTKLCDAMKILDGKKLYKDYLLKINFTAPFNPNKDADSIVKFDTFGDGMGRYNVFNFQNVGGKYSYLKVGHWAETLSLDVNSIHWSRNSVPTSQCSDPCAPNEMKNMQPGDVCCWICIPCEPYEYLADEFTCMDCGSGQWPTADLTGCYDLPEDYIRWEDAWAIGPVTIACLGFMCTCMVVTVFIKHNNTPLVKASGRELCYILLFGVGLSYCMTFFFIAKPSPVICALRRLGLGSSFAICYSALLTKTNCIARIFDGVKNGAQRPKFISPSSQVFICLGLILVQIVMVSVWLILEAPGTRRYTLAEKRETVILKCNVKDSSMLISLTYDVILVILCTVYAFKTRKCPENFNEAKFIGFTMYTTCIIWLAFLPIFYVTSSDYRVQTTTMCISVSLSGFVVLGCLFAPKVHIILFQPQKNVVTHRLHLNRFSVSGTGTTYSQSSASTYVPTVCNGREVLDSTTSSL
T1 sequence (Q14416 19-872): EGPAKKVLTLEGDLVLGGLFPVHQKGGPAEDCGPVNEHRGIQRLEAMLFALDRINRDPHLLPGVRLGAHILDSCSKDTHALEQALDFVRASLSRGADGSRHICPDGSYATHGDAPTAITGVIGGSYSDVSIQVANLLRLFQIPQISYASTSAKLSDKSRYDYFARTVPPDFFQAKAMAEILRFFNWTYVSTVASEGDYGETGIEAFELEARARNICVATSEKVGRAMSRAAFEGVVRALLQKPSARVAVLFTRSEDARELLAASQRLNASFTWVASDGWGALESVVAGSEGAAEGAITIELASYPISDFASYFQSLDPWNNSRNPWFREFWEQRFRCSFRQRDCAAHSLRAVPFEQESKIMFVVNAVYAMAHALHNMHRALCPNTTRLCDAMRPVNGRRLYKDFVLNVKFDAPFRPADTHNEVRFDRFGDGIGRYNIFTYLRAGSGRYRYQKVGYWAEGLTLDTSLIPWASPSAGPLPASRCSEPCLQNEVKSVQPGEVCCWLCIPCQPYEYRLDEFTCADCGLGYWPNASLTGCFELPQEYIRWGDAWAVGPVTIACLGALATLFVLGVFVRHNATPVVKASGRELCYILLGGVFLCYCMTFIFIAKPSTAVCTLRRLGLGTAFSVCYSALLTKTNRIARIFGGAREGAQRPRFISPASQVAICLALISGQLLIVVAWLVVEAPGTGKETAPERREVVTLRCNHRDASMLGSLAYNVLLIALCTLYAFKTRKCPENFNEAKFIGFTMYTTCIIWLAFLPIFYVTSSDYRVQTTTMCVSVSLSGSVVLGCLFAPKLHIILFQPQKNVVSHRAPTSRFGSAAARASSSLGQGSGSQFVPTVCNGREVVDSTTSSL

- Brain uptake in PET scan, in words (mGluR2/3; 90 min dynamic PET scan): high brain uptake
- Eff Curve (human mGlu2): 94
- IC50 (human mGlu2): 2.82 nM
- Eff Curve (human mGlu3): 107.5
- IC50 (human mGlu3): 4.37 nM
- Biodistribution, mean SUV ([1]; blood, 2 min after i.v. injection): 0.96 SUV
- Biodistribution, mean SUV ([1]; blood, 10 min after i.v. injection): 0.92 SUV
- Biodistribution, mean SUV ([1]; blood, 60 min after i.v. injection): 0.67 SUV
- Biodistribution, mean SUV ([1]; bone, 2 min after i.v. injection): 0.53 SUV
- Biodistribution, mean SUV ([1]; bone, 10 min after i.v. injection): 0.62 SUV
- Biodistribution, mean SUV ([1]; bone, 60 min after i.v. injection): 2.77 SUV
- Biodistribution, mean SUV ([1]; cerebellum, 2 min after i.v. injection): 1.53 SUV
- Biodistribution, mean SUV ([1]; cerebellum, 10 min after i.v. injection): 1.23 SUV
- Biodistribution, mean SUV ([1]; cerebellum, 60 min after i.v. injection): 0.73 SUV
- Biodistribution, mean SUV ([1]; cerebrum + cerebellum, 2 min after i.v. injection): 1.44 SUV
- Biodistribution, mean SUV ([1]; cerebrum + cerebellum, 10 min after i.v. injection): 1.34 SUV
- Biodistribution, mean SUV ([1]; cerebrum + cerebellum, 60 min after i.v. injection): 0.89 SUV
- Biodistribution, mean SUV ([1]; cortex, 2 min after i.v. injection): 2.50 SUV
- Biodistribution, mean SUV ([1]; cortex, 10 min after i.v. injection): 2.51 SUV
- Biodistribution, mean SUV ([1]; cortex, 60 min after i.v. injection): 1.56 SUV
- Brain uptake, in words ([1]; ex-vivo biodistribution): medium brain uptake
- Defluorination judged from bone uptake over time ([1]; ex-vivo biodistribution): massive defluorination
- Peripheral uptake, in words ([1]; ex-vivo biodistribution): high uptake in the liver
- Biodistribution, mean SUV ([1]; heart, 2 min after i.v. injection): 2.42 SUV
- Biodistribution, mean SUV ([1]; heart, 10 min after i.v. injection): 1.67 SUV
- Biodistribution, mean SUV ([1]; heart, 60 min after i.v. injection): 0.82 SUV
- Biodistribution, mean SUV ([1]; hippocampus, 2 min after i.v. injection): 1.03 SUV
- Biodistribution, mean SUV ([1]; hippocampus, 10 min after i.v. injection): 1.17 SUV
- Biodistribution, mean SUV ([1]; hippocampus, 60 min after i.v. injection): 0.74 SUV
- Biodistribution, mean SUV ([1]; kidneys, 2 min after i.v. injection): 4.05 SUV
- Biodistribution, mean SUV ([1]; kidneys, 10 min after i.v. injection): 2.73 SUV
- Biodistribution, mean SUV ([1]; kidneys, 60 min after i.v. injection): 1.81 SUV
- Biodistribution, mean SUV ([1]; liver, 2 min after i.v. injection): 8.44 SUV
- Biodistribution, mean SUV ([1]; liver, 10 min after i.v. injection): 6.22 SUV
- Biodistribution, mean SUV ([1]; liver, 60 min after i.v. injection): 2.83 SUV
- Biodistribution, mean SUV ([1]; lungs, 2 min after i.v. injection): 2.66 SUV
- Biodistribution, mean SUV ([1]; lungs, 10 min after i.v. injection): 1.52 SUV
- Biodistribution, mean SUV ([1]; lungs, 60 min after i.v. injection): 1.02 SUV
- Biodistribution, mean SUV ([1]; muscle, 2 min after i.v. injection): 0.88 SUV
- Biodistribution, mean SUV ([1]; muscle, 10 min after i.v. injection): 0.82 SUV
- Biodistribution, mean SUV ([1]; muscle, 60 min after i.v. injection): 0.59 SUV
- Biodistribution, mean SUV ([1]; pancreas, 2 min after i.v. injection): 3.29 SUV
- Biodistribution, mean SUV ([1]; pancreas, 10 min after i.v. injection): 2.06 SUV
- Biodistribution, mean SUV ([1]; pancreas, 60 min after i.v. injection): 1.27 SUV
- Biodistribution, mean SUV ([1]; pons, 2 min after i.v. injection): 1.04 SUV
- Biodistribution, mean SUV ([1]; pons, 10 min after i.v. injection): 0.74 SUV
- Biodistribution, mean SUV ([1]; pons, 60 min after i.v. injection): 0.40 SUV
- Biodistribution, mean SUV ([1]; rest of cerebrum, 2 min after i.v. injection): 1.45 SUV
- Biodistribution, mean SUV ([1]; rest of cerebrum, 10 min after i.v. injection): 1.39 SUV
- Biodistribution, mean SUV ([1]; rest of cerebrum, 60 min after i.v. injection): 0.97 SUV
- Biodistribution, mean SUV ([1]; spleen, 2 min after i.v. injection): 2.53 SUV
- Biodistribution, mean SUV ([1]; spleen, 10 min after i.v. injection): 1.36 SUV
- Biodistribution, mean SUV ([1]; spleen, 60 min after i.v. injection): 0.87 SUV
- Biodistribution, mean SUV ([1]; striatum, 2 min after i.v. injection): 1.51 SUV
- Biodistribution, mean SUV ([1]; striatum, 10 min after i.v. injection): 1.61 SUV
- Biodistribution, mean SUV ([1]; striatum, 60 min after i.v. injection): 1.30 SUV
- Biodistribution, mean SUV ([1]; whole cerebrum, 2 min after i.v. injection): 1.39 SUV
- Biodistribution, mean SUV ([1]; whole cerebrum, 10 min after i.v. injection): 1.34 SUV
- Biodistribution, mean SUV ([1]; whole cerebrum, 60 min after i.v. injection): 0.90 SUV
Structure (SMILES): C[C@H]1CN(c2ccc(C(F)(F)F)c(C[18F])c2)C(=O)c2c(C#Cc3ccc(N)nc3)cnn21 [Compound 2]
- Brain uptake after pretreatment with compound A (mGluR2/3; 10 mg/kg compound A s.c. 60 min before tracer): peak uptake was higher after pretreatment, but generally showed a faster washout
- mGluR2/3 specificity of binding in vivo (mGluR2/3; PET, baseline vs compound A pretreatment): mGluR2/3 specific binding

- melting point: 211.51 °C
Structure (SMILES): C[C@H]1CN(c2ccc(C(F)(F)F)cc2)C(=O)c2c(C#Cc3cnc(N)cc3CO)cnn21 [Compound P-1]

- melting point: 153.23 °C
Structure (SMILES): C[C@H]1CN(c2ccc(C(F)(F)F)c(CO)c2)C(=O)c2c(C#Cc3ccc(N)nc3)cnn21 [Compound P-3]

- melting point: 187.28 °C
Structure (SMILES): C[C@H]1CN(c2ccc(C(F)(F)F)cc2)C(=O)c2c(C#Cc3cnc(N)cc3CF)cnn21 [[^19F]-1]
